From patent publication EP0462621A2, “Use of particular compounds for manufacture of pharmaceutical formulations for treatment against various parasites, mycoplasmas, other indications and other infections” (Prendergast, Patrick Thomas, priority 1990, dated 1991) come the findings set out here.

As a reminder, the IC50 is the concentration that gives 50% inhibition.

For one data set, the system named is HIV. The experiment in a line: HIV production from H9 cells persistently infected with HIV, RT activity. Format: cell-based. The procedure: To examine the effect of IPA on the production of HIV-1 in H9 cells persistently infected with HIV-1, 5x10^6 HIV-1-infected H9 cells were incubated in the absence or presence of IPA. Every 4-5 days, two thirds of the total cells were removed and medium was changed. New medium with or without drug was added to bring up to the original volume. At days indicated, culture supernatant was withdrawn and tested for the production of HIV-1 by the RT activity. A 20,000 cpm or more TCA insoluble radioactivity per millilitre of supernatant was considered positive in the RT assay. Results

The subject of data set [1] is monocyte/macrophage cultures. The experiment in a line: Appearance and differentiation of monocyte/macrophage cultures in Experiment la(a). Format: cell-based. The protocol: Fresh macrophage cultures were obtained by incubation of mononuclear cells obtained from a leukopak directly in the wells of a microtiter plate having 6 wells per row. After removal of non-adherent cells, each row of the adherent macrophages was infected with 10-fold serial dilutions of HIV-I, with the use of polybrene to enhance uptake of the virus. After one to two hours, the virus inoculum was removed and replaced with fresh normal growth medium. The fresh medium for each row contained a particular concentration of AZT, dideoxy cytidine (ddC), or compound la, as indicated by the left-hand column of Table la(a). The first row of wells acted as a control, and to it was added fresh medium containing none of the three drugs. Medium levels were maintained for two to four weeks to allow replication of the virus to take place, with at least one complete fluid change to remove residual virus inoculum. The contents of each well were then tested for the level of HIV p24 antigen present using a commercially available antigen capture kit employing a radio-immunoassay which can detect as little as 10'^9gm of p24 present in a sample. The above procedure was done in duplicate runs.

A further data set has as its system HIV-1 and CAEV. The data set is described as follows: Inhibition of virus replication, summary over viruses and cell lines of Figure 15. Format: cell-based. The conditions noted are these: depending upon the virus and cell line. The procedure:
Selected results presented in Tables la(a), la(b) and la(c) are plotted in Figure 15.
It is apparent from Figure 15 that IPA appears to inhibit the replication of HIV-1 and CAEV at concentrations ranging from 3 to 30 µM and above. Without appropriate toxicity data it is not possible to calculate the therapeutic index at the various drug concentrations. Nevertheless, the IC50 can be seen to vary between approximately 2-6 u.M, depending upon the virus and cell line, and the ICso varies between 3-30 µM in these experiments.

The nature of data set [2]: Solubility of IPA in water. Format: physicochemical.
Another data set has as its system HIV-1. The data set is described as follows: In vitro HIV-1 infection of H9 cells, HIV-1 P24 antigen capture test. Format: cell-based. The conditions noted are these: doses of 3.75 µM or higher, Figure 13. The protocol: In vitro infection of H9 cells was carried out as described previously. Briefly, 5x10^6 H9 cells were treated with DEAE-dextran (25 µg/mt) for 20 min. Cells were then infected with 1 ml of cell free HIV-1 (1 X1 05 RT unit) for 1 hr at 37° C. Cells were then washed and incubated for 12 days in the absence or presence of various concentrations of IPA. Every 3-4 days, the medium was replaced with fresh medium containing appropriate concentrations of drug. At various days following infection, the presence of HIV-1 in the supernatant was monitored by measuring HIV-1 P24 using the antigen capture test (DuPont@, Wilmington, DE).
An investigation of the effect of IPA on in-vitro HIV-1 infection of H9 cells, a T cell line, was performed. The drug was added following 1 hr adsorption of the virus, and was maintained in the culture medium throughout the incubation period.

Consider `CC(C)=CCNc1ncnc2c1ncn2[C@@H]1O[C@H](CO)[C@@H](O)[C@H]1O` [IPA, N^6-(Δ^2-isopentenyl) adenosine], for which the “HIV PRODUCTION RT ACTIVITY cpm/ml” value with HIV (DRUG CONCENTRATION 3.75 (unit not given), 15 DAYS p.d., without drug 3 x 10^5) was 2.3 x 10^5 cpm/ml; in the data set on HIV (DRUG CONCENTRATION 3.75 (unit not given), 25 DAYS p.d., without drug 1.1 x 10^6), 1.2 x 10^5 cpm/ml; with HIV (DRUG CONCENTRATION 7.5 (unit not given), 15 DAYS p.d., without drug 3 x 10^5), 2.9 x 10^5 cpm/ml; in the data set with HIV (DRUG CONCENTRATION 7.5 (unit not given), 25 DAYS p.d., without drug 1.1 x 10^6), 3.2 x 10^5 cpm/ml; in the data set with HIV (DRUG CONCENTRATION 15 (unit not given), 15 DAYS p.d., without drug 3 x 10^5), 2.3 x 10^5 cpm/ml; in the data set on HIV (DRUG CONCENTRATION 15 (unit not given), 25 DAYS p.d., without drug 1.1 x 10^6), 3.6 x 10^5 cpm/ml. Also, the “HIV PRODUCTION RT ACTIVITY cpm/ml” value is listed as 2.9 x 10^5 cpm/ml in the data set with HIV (DRUG CONCENTRATION 30 (unit not given), 15 DAYS p.d., without drug 3 x 10^5) and 2.5 x 10^5 cpm/ml with HIV (DRUG CONCENTRATION 30 (unit not given), 25 DAYS p.d., without drug 1.1 x 10^6). In data set [1] (all concentrations of IPA used (3-1000 μM)), the “appearance of monocyte/macrophage cultures” value is “appeared to be healthy”. In addition, the “differentiation of small immature monocytes into large adherent macrophage cells” value in data set [1] (in the presence of IPA) was “did not take place”. Further, in the data set on HIV-1 and CAEV, the ICso fell in the range of 3 to 30 µM. In the data set on HIV-1 and CAEV (approximately), this molecule showed an IC50 of 2 to 6 µM. Also, the solubility in water entry in data set [2] is given as “does not readily dissolve in water”. For the same molecule, the “inhibition of HIV-1 production” value with HIV-1 was “more than five log inhibition”.
